# Laboratory results: patent US6989396B2, “Tropane alkaloid multidrug resistance inhibitors from Erythroxylum pervillei and use of the same” (The Board of Trustees of the University of Illinois, priority 2001, dated 2006)
# Read-outs that look alike come from different tables or passages of the source. Marks after values point to notes of the source that are not given here.
# Experiments:
# KB-V1 cells = assay: In vivo hollow fiber test: KB-V1; parameters: species or system NCr nu/nu mice
# Method: In vivo hollow fiber test. […] Confluent monolayers of KB-3, KB-V1 or KB-8-5 cells were harvested, collected by centrifugation and resuspended in conditioned medium at a concentration of 7.5×10^5 cells/ml.
# Test compounds were administrated once daily by intraperitoneal injection from day 3–6 after implantation. Body weights were measure daily.
# After incubating at 37° C. for 4 hours, the culture medium was aspirated and the samples were washed twice with normal saline containing 2.5% protamine sulfate solution by overnight incubation at 4° C. […] The formazan was extracted from each sample with DMSO (250 μl/well) for 4 hours at room temperature on a rotation platform.
# Col2, colon cancer = assay: In vitro cytotoxicity, human tumor panel: Col2; assay type: cell-based; settings: Homo sapiens, read-out: ED50 Col2
# Outline: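 Human cancer cell panel; cytotoxicity per standard protocol. KB-V1 run ± VLB.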
# [1] = system: SKVLB (ovarian adenocarcinoma, multidrug resistance); assay: Multidrug resistance inhibition in SKVLB (pGp +ve); assay type: cell-based, human
# CEM/VLB100 cells = assay: MDR reversal in drug-resistant human leukemia CEM/VLB100 cells; assay type: cell-based; settings: for IC50: Homo sapiens
# Lu1, lung cancer = assay: In vitro cytotoxicity, human tumor panel: Lu1; assay type: cell-based; settings: Homo sapiens, read-out: ED50 Lu1
# Method: (§1) Cytotoxicity assay. Compounds 1–9 were evaluated for cytotoxic activity against a panel of human cancer cell lines, including KB-V1 in the presence and absence of VLB, according to an established protocol (68).
# KB-V1, drug resistant KB = assay: In vitro cytotoxicity, human tumor panel: KB-V1 with or without vinblastine; assay type: cell-based
# Method: as §1
# [2] = summation of single-agent inhibitions
# [3] = pervilleine A 5 μM, verapamil 10 μM
smiles,measurement,setting,value
"COc1cc(C=CC(=O)O[C@H]2[C@@H](O)[C@@H]3C[C@H](OC(=O)c4cc(OC)c(OC)c(OC)c4)C[C@H]2N3C)cc(OC)c1OC [Compound 3, 3α-(3,4,5-trimethoxybenzoyloxy)-6β-(3,4,5-trimethoxycinnamoyloxy)-7β-hydroxytropane]",inhibition of cell growth when used in combination with vinblastine,KB-V1 cells; KB-V1 or KB-8-5 cells in hollow fibers implanted into NCr nu/nu mice,up to 75%
same,"Calculated inhibition (vinblastine + reversing agent as single agents), KB-V1, i.p. site",KB-V1 cells; [2],2%
same,"Calculated inhibition (vinblastine + reversing agent as single agents), KB-V1, s.c. site",KB-V1 cells; [2],3.3%
same,"Observed inhibition from coadministration with vinblastine, KB-V1, s.c. site",KB-V1 cells; vinblastine 250 μg/kg + reversing agent 0.136 mmol/kg,14.6 (P = 0.188) %
same,"Observed inhibition from coadministration with vinblastine, KB-V1, i.p. site","KB-V1 cells; vinblastine 250 μg/kg + reversing agent 0.136 mmol/kg, i.p. injection once daily days 3–6, listed as pervilleine A",68.6 (P < 0.0001) %
same,"Growth inhibition, single agent, KB-V1, s.c. site","KB-V1 cells; vinblastine 250 μg/kg, reversing agents 0.136 mmol/kg, i.p. injection once daily days 3–6",3.3%
same,"Growth inhibition, single agent, KB-V1, i.p. site","KB-V1 cells; vinblastine 250 μg/kg, reversing agents 0.136 mmol/kg, i.p. injection once daily days 3–6, fibers retrieved day 7, MTT",1%
same,IC50,"Col2, colon cancer",> 20 µg/mL
same,IC50,"[1]; Homo sapiens, read-out: IC50 BSKVLB (pGp + ve)",> 10000 nM
same,IC50,"[1]; read-out: IC50 SKVLB (pGp + ve), addition of adriamycin, Addition of 1 μm adriamycin",650 nM
same,IC50,"CEM/VLB100 cells; CEM/VLB100, 48 h, read-out: IC50 Modulator only",> 15000 nM
same,IC50,"CEM/VLB100 cells; CEM/VLB100, read-out: IC50 (Modulator + Daunorubicin)",65 nM
same,IC50,"CEM/VLB100 cells; CEM/VLB100, read-out: IC50 (Modulator + Vinblastine)",20 nM
same,Ratio of IC50 values Daunorubicin/(Modulator + Daunorubicin),CEM/VLB100 cells; [3],15^c
same,Ratio of IC50 values Modulator/(Modulator + Daunorubicin),CEM/VLB100 cells; [3],>231^c
same,Ratio of IC50 values Modulator/(Modulator + Vinblastine),CEM/VLB100 cells; [3],>750^c
same,Ratio of IC50 values Vinblastine/(Modulator + Vinblastine),CEM/VLB100 cells; [3],250^c
same,IC50,"Lu1, lung cancer",> 20 µg/mL
same,IC50,"KB-V1, drug resistant KB; Homo sapiens, KB-V1, drug-resistant KB assessed in the absence of vinblastine, read-out: ED50 KB-V1−",> 20 µg/mL
same,ED50 KB-V1+,"KB-V1, drug resistant KB; drug resistant KB assessed in presence of vinblastine (1 μg/mL)",0.3 µg/mL
